Article PMC10044245, “Comparative Evaluation of Existing and Rationally Designed Novel Antimicrobial Peptides for Treatment of Skin and Soft Tissue Infections” (Antibiotics, 2023)
In brackets after ≈: the same amount, converted by molar mass. Where a SMILES comes first, the peptide text is derived from it.

Columns and labels:
E. coli = assay: microbe, parasite or virus in culture; format: cell-based, Escherichia coli
Protocol: (§1) Quantification of the antimicrobial resistance against various AMPs was carried out by measuring the bacterial growth in the presence of peptides at serial dilutes in 96 well plates in a microplate (96-well plate) reader Infinite® M200 PRO Multimode Microplate Reader (Tecan, Maennedorf, Switzerland) according to our recent reports. All bacterial strains were incubated at 32 °C for 13–18 h at 200 rpm. Optical density measurements (λ = 550 nm) were taken automatically at 10 min intervals. Antimicrobial resistance activity was quantified as the minimum inhibitory concentration (MIC)—the lowest concentration of a peptide which prevents growth of bacterial cells.

P. aeruginosa = assay: microbe, parasite or virus in culture; format: cell-based, Pseudomonas aeruginosa
Protocol: as §1

K. pneumonia = assay: microbe, parasite or virus in culture; format: cell-based, Klebsiella pneumoniae
Protocol: as §1

E. faecium = assay: microbe, parasite or virus in culture; format: cell-based, Enterococcus faecium
Protocol: as §1

S. aureus = assay: microbe, parasite or virus in culture; format: cell-based, Staphylococcus aureus
Protocol: as §1

C. acnes = assay: microbe, parasite or virus in culture; format: cell-based, Cutibacterium acnes
Protocol: as §1

[1] = system: BALB/c 3T3 murine fibroblast cell line; assay: Cytotoxicity, neutral red uptake assay; format: cell-based; conditions: for IC50, viability of Balb/c 3T3 cells: 48 h
Excerpt: The BALB/c 3T3 murine fibroblast cell line was obtained from ATCC (American Type Culture Collection, Manassas, VA, USA). Primary human dermal fibroblasts were isolated by enzymatic digestion from skin biopsies in the Laboratory of Bioanalytical and Biodosimetry Methods, University of Latvia, in accordance with the approval of the Committee of Research Ethics of the Institute of Cardiology and Regenerative Medicine, University of Latvia. Cells were propagated in DMEM medium (Sigma, Irvine, UK), supplemented with 1% penicillin (100 U/mL)–streptomycin (100 μg/mL), and 10% calf serum (Sigma, St. Louis, MO, USA) for Balb/c 3T3 cell line and fetal bovine serum (Sigma, St. Louis, MO, USA) for primary dermal fibroblasts. All cultivations were performed in a humidified 5% CO2 atmosphere at 37 °C.
The cytotoxicity of the peptides was tested in the BALB/c3T3 cell line and primary dermal fibroblasts by the neutral red (NR) uptake assay. Cells were seeded in 96-well plates at a density of 5 × 10^3 cells per well. After 24 h of incubation, peptides in a concentration range of 3.9 to 500 μg/mL were added. Dilutions were made in a cell cultivation medium. Cultivation in the presence of extracts was performed for 48 h. Afterwards, plates were washed with phosphate-buffered saline (PBS) (Sigma, Irvine, UK), and a 25 µg/mL NR solution (Sigma, Irvine, UK) diluted in 5%-fetal-calf-serum-containing-media was added. After 3 h, incubation in a humidified 5% CO2 atmosphere at 37 °C, the plate was washed with PBS, and the NR taken up by viable cells was extracted using desorbing fixative (50% ethanol/1% acetic acid/49% water). Absorbance at 540 nm was measured using a microplate reader Tecan Infinite® 200 PRO (Tecan Group Ltd., Mannedorf, Switzerland). Cytotoxicity was expressed as a concentration-dependent reduction in the uptake of NR, compared to the untreated controls and calculated using the following equation: Cell viability (%)=Abs540nm(treatment)−Abs540nm(background)/Abs540nm(untreated control)−Abs540nm(background)×100%

With `CC[C@H](C)[C@H](N)C(=O)N[C@@H](C)C(=O)N[C@@H](CCCCN)C(=O)N[C@@H](CCCCN)C(=O)N[C@@H](Cc1ccccc1)C(=O)N[C@@H](Cc1c[nH]c2ccccc12)C(=O)N[C@@H](CCCCN)C(=O)N[C@@H](CCCCN)C(=O)N[C@@H](Cc1ccccc1)C(=O)N[C@@H](Cc1c[nH]c2ccccc12)C(=O)N[C@@H](CCCCN)C(=O)N[C@@H](Cc1ccccc1)C(=O)N[C@@H](Cc1c[nH]c2ccccc12)C(=O)N[C@@H](CCCCN)C(=O)N[C@H](C(=O)N[C@@H](Cc1ccccc1)C(=O)N[C@@H](CCCCN)C(=O)N[C@@H](CCCCN)C(=O)N[C@H](C(=O)N[C@@H](C)C(=O)O)[C@@H](C)CC)[C@@H](C)CC` [Peptide R12] (H-IAKKFWKKFWKFWKIFKKIA-OH) the “MIC E. coli” value (E. coli) was 8.0 µg/mL (≈ 2.99 µM), the “Therapeutic Index E. coli” value (E. coli) was 2.0 and the “MIC P. aeruginosa” value (P. aeruginosa) was 4.0 µg/mL (≈ 1.5 µM). The “Therapeutic Index P. aeruginosa” value (P. aeruginosa) was 4.0, the “MIC K. pneumonia” value (K. pneumonia) was 31.0 µg/mL (≈ 11.6 µM) and the “Therapeutic Index K. pneumonia” value (K. pneumonia) was 0.5. The “MIC E. faecium” value (E. faecium) was 16.0 µg/mL (≈ 5.99 µM), the “Therapeutic Index E. faecium” value (E. faecium) was 1.0 and the “MIC S. aureus” value (S. aureus) was 8.0 µg/mL (≈ 2.99 µM). For the same compound, the “Therapeutic Index S. aureus” value (S. aureus) was 2.0, the “MIC C. acnes” value (C. acnes) was 0.5 µg/mL (≈ 0.187 µM) and the “Therapeutic Index C. acnes” value (C. acnes) was 32.0. For the same compound, the “IC50, viability of Balb/c 3T3 cells” value [1] was 16.18 µg/mL.

`CC(C)[C@H](NC(=O)[C@H](Cc1ccc(O)cc1)NC(=O)[C@H](Cc1c[nH]c2ccccc12)NC(=O)[C@H](CS)NC(=O)[C@H](Cc1ccccc1)NC(=O)CN)C(=O)N[C@@H](CS)C(=O)N[C@@H](C)C(=O)N[C@@H](CCCNC(=N)N)C(=O)N[C@@H](CCCNC(=N)N)C(=O)N[C@@H](CC(N)=O)C(=O)NCC(=O)N[C@@H](C)C(=O)N[C@@H](CCCNC(=N)N)C(=O)N[C@H](C(=O)N[C@@H](CS)C(=O)N[C@@H](Cc1ccc(O)cc1)C(=O)N[C@@H](CCCNC(=N)N)C(=O)N[C@@H](CCCNC(=N)N)C(=O)N[C@@H](CS)C(=O)N[C@@H](CC(N)=O)C(=O)O)C(C)C` [AA139, reference compound] (H-GFCWYVCARRNGARVCYRRCN-OH; N-terminus and C-terminus assumed) was tested, and the “MIC E. coli” value (E. coli) was 4.0 µg/mL (≈ 1.57 µM), the “Therapeutic Index E. coli” value (E. coli) was 157.0 and the “MIC P. aeruginosa” value (P. aeruginosa) was 16.0 µg/mL (≈ 6.26 µM). For the same compound, the “Therapeutic Index P. aeruginosa” value (P. aeruginosa) was 39.3, the “MIC K. pneumonia” value (K. pneumonia) was 8.0 µg/mL (≈ 3.13 µM) and the “Therapeutic Index K. pneumonia” value (K. pneumonia) was 78.5. For the same compound, the “MIC E. faecium” value (E. faecium) was 16.0 µg/mL (≈ 6.26 µM), the “Therapeutic Index E. faecium” value (E. faecium) was 39.3 and the “MIC S. aureus” value (S. aureus) was 8.0 µg/mL (≈ 3.13 µM). The “Therapeutic Index S. aureus” value (S. aureus) was 78.5, the “MIC C. acnes” value (C. acnes) was 63.0 µg/mL (≈ 24.7 µM) and the “Therapeutic Index C. acnes” value (C. acnes) was 10.0. For the same compound, the “IC50, viability of Balb/c 3T3 cells” value [1] was 627.5 µg/mL and the “reduction of cell viability” value ([1]; Balb/c 3T3, at 500 μg/mL) was 36%.
